Results taken from patent US20230165812A1, “NOCICEPTOR NEURONS CONTROL CANCER IMMUNOSURVEILLANCE” (priority 2020, published 2023).
Entries after “also recorded” stand apart in the source; their conditions may differ. Like-named read-outs stand apart in the source and are kept apart here.

How the values were obtained:
[1] = tested on: tumor-infiltrating CD8 and CD4 T cells; format: in vivo, mice
B16F10 [2] = tested on: B16F10; design: species or system mice; conditions: mouse, in vivo
B16F10 [3] = format: in vivo, mice; conditions: for reduction of B16F10 melanoma growth compared with vehicle / reduction of tumor weight compared with vehicle: B16F10-bearing mice; for reduction of B16F10 melanoma growth compared with vehicle: QX-314 0.3% daily i.d. surrounding the tumor, BIBN4096 systemically once every two days (5 mg/kg i.p.); for reduction of tumor weight compared with vehicle: QX-314 0.3% daily i.d., BIBN4096 5 mg/kg i.p.
CGRP receptor = CGRP receptor (Mus musculus, UniProt Q9R1W5+Q9WTJ5); conditions: in vivo; cited from earlier work
B16F10 cells = format: cell-based, mouse; conditions: BIBN4096 1-4 μM
[4] = tested on: tumor-infiltrating CD8+ and CD4+ T-cells; format: in vivo, mice; conditions: for reduction of the proportion of PD1+Lag3+Tim3+ CD8+ T-cells: intra-tumoral, QX-314 0.3% daily i.d.
[5] = tested on: cytotoxic CD8+ T-cells co-cultured with DRG neurons; assay: DRG neuron / cytotoxic CD8+ T-cell co-culture; format: cell-based, mice; conditions: for INFγ+ CD8+ T-cells in co-culture with DRG neurons / TNFα+ CD8+ T-cells in co-culture with DRG neurons / proportion of PD1+Lag3+Tim3+ CD8+ T-cells in co-culture with DRG neurons: neuron stimulation, 48 h co-culture
Protocol: Naïve DRG neurons (1×10^4) were seeded in T cell media (supplemented with 0.05 ng/μL NGF (Life Technologies, #13257-019), 0.002 ng/μL GDNF (Peprotech, #450-51-10), and co-cultured with Tc1 CD8 T cells (1×10^5) in presence of IL-2 (575408). In some instances, co-cultures were stimulated with either of capsaicin (300 nM, twice/day) or KCl (40 mM). After 48 h, the cells were collected by centrifugation (5 min at 1300 rpm), stained and immunophenotyped by flow cytometry.

B16F10 [6] = format: in vivo, mice
[7] = tested on: cytotoxic CD8+ T-cells co-cultured with DRG neurons; assay: DRG neuron / cytotoxic CD8+ T-cell co-culture; format: cell-based, mice; conditions: capsaicin without neurons
CGRP = tested on: CGRP; design: species or system mice; conditions: capsaicin 1 μM; 3 h

Chain of CGRP receptor (Q9R1W5 25-463): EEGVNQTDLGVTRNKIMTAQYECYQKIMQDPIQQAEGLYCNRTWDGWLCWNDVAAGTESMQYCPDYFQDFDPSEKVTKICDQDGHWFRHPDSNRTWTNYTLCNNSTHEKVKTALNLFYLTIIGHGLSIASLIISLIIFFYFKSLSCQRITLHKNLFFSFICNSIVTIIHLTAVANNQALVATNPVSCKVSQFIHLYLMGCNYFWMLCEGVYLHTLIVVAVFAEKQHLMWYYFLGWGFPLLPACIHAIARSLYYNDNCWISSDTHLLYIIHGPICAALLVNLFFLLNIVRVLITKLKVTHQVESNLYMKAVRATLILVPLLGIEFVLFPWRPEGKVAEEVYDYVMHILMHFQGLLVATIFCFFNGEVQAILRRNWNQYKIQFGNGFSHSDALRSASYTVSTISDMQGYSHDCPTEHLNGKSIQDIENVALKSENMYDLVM
Chain of CGRP receptor (Q9WTJ5 27-148): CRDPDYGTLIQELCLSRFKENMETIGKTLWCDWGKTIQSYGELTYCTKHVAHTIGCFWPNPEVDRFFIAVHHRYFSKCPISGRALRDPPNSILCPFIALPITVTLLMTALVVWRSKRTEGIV

NCCCC[C@H](NC(=O)[C@@H](Cc1cc(Br)c(O)c(Br)c1)NC(=O)N1CCC(N2Cc3ccccc3NC2=O)CC1)C(=O)N1CCN(c2ccncc2)CC1 [BIBN4096]
intra-tumor PD1+ CD8 T cells ([1]; BIBN 5 mg/kg): decreased | tumor infiltration of PD1+ CD4 T cells ([1]; BIBN 5 mg/kg i.d.): decreased | infiltration of INFγ+ CD8 T cells ([1]; Example 2 dosing): increasing; also recorded: enhanced | total number of intra-tumoral CD4 T cells ([1]; Example 2 dosing): enhanced; also recorded: increased | tumor infiltration of INFγ+ CD4 T cells ([1]; Example 2 dosing): increased | tumor infiltration of TNFα+ CD4 T cells ([1]; Example 2 dosing): decreased | tumor infiltration of TNFα+ CD8 T cells ([1]; Example 2 dosing): increasing; also recorded: increased | tumor infiltration of Granzyme B+ CD4 T cells ([1]; mouse, in vivo): increased | tumor infiltration of Granzyme B+ CD8 T cells ([1]; mouse, in vivo): increasing; also recorded: increased | B16F10 tumor growth (B16F10 [2]): reduced; also recorded: decreased | B16F10 tumor volume (B16F10 [2]): reduced | B16F10 tumor weight (B16F10 [2]): reduced | reduction of B16F10 melanoma growth compared with vehicle (B16F10 [3]): ~1.5 fold | reduction of tumor weight compared with vehicle (B16F10 [3]): ~1.9 fold | B16F10 tumor growth (B16F10 [3]; mouse, in vivo, ip, 5 mg/kg): decreased | B16F10 tumor volume (B16F10 [3]; mouse, in vivo, ip, 5 mg/kg): decreased | B16F10 tumor weight (B16F10 [3]; mouse, in vivo, ip, 5 mg/kg): decreased | IL2+ cultured cytotoxic CD8+ T-cells (cytotoxic CD8+ T-cells): do not impact | INFγ+ cultured cytotoxic CD8+ T-cells (cytotoxic CD8+ T-cells): do not impact | TNFα+ cultured cytotoxic CD8+ T-cells (cytotoxic CD8+ T-cells): do not impact | proportion of PD1+Lag3+Tim3+ cultured cytotoxic CD8+ T-cells (cytotoxic CD8+ T-cells): do not impact | survival of cultured cytotoxic CD8+ T-cells (cytotoxic CD8+ T-cells): do not impact | effects of αCD3/αCD28 stimulation on CD8+ T-cells (cytotoxic CD8+ T-cells; BIBN4096 1-4 μM): do not prevent | host anti-bacterial activity during microbe infection (CGRP receptor): rescues | cultured B16F10 survival (B16F10 cells): no impact | increase of intra-tumor number of INFγ+ CD8+ T-cells ([4]; BIBN4096 5 mg/kg i.p.): ~3 fold | increase of intra-tumor number of total CD8+ T-cells ([4]; BIBN4096 5 mg/kg i.p.): ~3 fold | intra-tumoral number of Granzyme B+ CD4+ T-cells ([4]; BIBN4096 5 mg/kg i.p.): increased | intra-tumoral number of INFγ+ CD4+ T-cells ([4]; BIBN4096 5 mg/kg i.p.): increased | intra-tumoral number of TNFα+ CD4+ T-cells ([4]; BIBN4096 5 mg/kg i.p.): increased | intra-tumoral proportion of PD1+ CD4+ T-cells ([4]; BIBN4096 5 mg/kg i.p.): decreased | intra-tumoral number of Granzyme B+ CD8+ T-cells ([4]; Example 1 dosing): increased | intra-tumoral number of INFγ+ CD8+ T-cells ([4]; Example 1 dosing): increased | intra-tumoral number of TNFα+ CD8+ T-cells ([4]; Example 1 dosing): increased | intra-tumoral number of total CD8+ T-cells ([4]; Example 1 dosing): increased | reduction of the proportion of PD1+Lag3+Tim3+ CD8+ T-cells ([4]; BIBN4096 5 mg/kg i.p.): ~2.5 fold | intra-tumoral total CD4+ T-cells counts ([4]; mouse, in vivo): increased | number/proportion of intra-tumor PD1+Lag3+Tim3+ CD8+ T-cells ([4]; mouse, in vivo, ip, 5 mg/kg): decreased

[Cl-].[K+] [KCl, potassium chloride]
INFγ+ CD8+ T-cells in co-culture with DRG neurons [5]: decreased | TNFα+ CD8+ T-cells in co-culture with DRG neurons [5]: decreased | proportion of PD1+Lag3+Tim3+ CD8+ T-cells in co-culture with DRG neurons [5]: increased

CC[N+](CC)(CC)CC(=O)Nc1c(C)cccc1C [QX-314]
rate at which vehicle exposed mice succumb relative to treated mice (B16F10 [6]; B16F10-bearing mice, p≤0.0001): 2.7 fold | hazard ratio (survival) (B16F10 [6]; mouse, in vivo): 0.37 | reduction of B16F10 melanoma growth compared with vehicle (B16F10 [3]): ~3.3 fold | reduction of tumor weight compared with vehicle (B16F10 [3]): ~5.2 fold | IL2+ cultured cytotoxic CD8+ T-cells (cytotoxic CD8+ T-cells): do not impact | INFγ+ cultured cytotoxic CD8+ T-cells (cytotoxic CD8+ T-cells): do not impact | TNFα+ cultured cytotoxic CD8+ T-cells (cytotoxic CD8+ T-cells): do not impact | proportion of PD1+Lag3+Tim3+ cultured cytotoxic CD8+ T-cells (cytotoxic CD8+ T-cells): do not impact | survival of cultured cytotoxic CD8+ T-cells (cytotoxic CD8+ T-cells): do not impact | reduction of the proportion of PD1+Lag3+Tim3+ CD8+ T-cells ([4]; BIBN4096 5 mg/kg i.p.): ~15 fold

COc1cc(CNC(=O)CCCC/C=C/C(C)C)ccc1O [capsaicin]
impact on CD8+ T-cells in the absence of neurons [7]: no measurable impact | IL2+ CD8+ T-cells in co-culture with DRG neurons ([5]; capsaicin-challenge): decreased | proportion of PD1+ T cells in co-culture with DRG neurons ([5]; capsaicin-challenge): increases | INFγ+ CD8+ T-cells in co-culture with DRG neurons [5]: reduced; also recorded: decreased | TNFα+ CD8+ T-cells in co-culture with DRG neurons [5]: decreased; also recorded: reduced | proportion of PD1+Lag3+Tim3+ CD8+ T-cells in co-culture with DRG neurons [5]: increased | INFγ+ CD8+ T-cells in co-culture with DRG neurons ([5]; listed as Capsaicin): decreased | TNFα+ CD8+ T-cells in co-culture with DRG neurons ([5]; listed as Capsaicin): decreased | CGRP levels in B16F10 tumor surrounding skin explant (CGRP): further enhanced
